For assay [1], the target named is Cruzipain (Trypanosoma cruzi) (UniProt P25779). Description: Inhibition of Trypanosoma cruzi cruzain at 1 uM after 5 mins.
Assay [2] deals with T1, Cathepsin B-like cysteine protease (Trypanosoma brucei, UniProt Q6R7Z5).
T1 sequence (Q6R7Z5 whole entry): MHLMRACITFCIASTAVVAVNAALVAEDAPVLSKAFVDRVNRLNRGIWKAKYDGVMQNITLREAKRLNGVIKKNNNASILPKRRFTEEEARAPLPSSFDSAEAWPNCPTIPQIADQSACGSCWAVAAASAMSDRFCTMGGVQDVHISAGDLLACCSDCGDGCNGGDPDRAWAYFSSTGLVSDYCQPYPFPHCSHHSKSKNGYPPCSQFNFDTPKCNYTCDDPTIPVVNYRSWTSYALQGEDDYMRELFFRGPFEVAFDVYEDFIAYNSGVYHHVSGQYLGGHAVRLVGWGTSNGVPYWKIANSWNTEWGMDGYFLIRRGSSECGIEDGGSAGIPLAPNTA

The target in another assay is Cruzipain (Trypanosoma cruzi, UniProt P25779).
For the next assay, the system named is Jurkat. Description: cells. The note with it: Homo sapiens.
A further assay concerns the target Rhodesain (Trypanosoma brucei rhodesiense, UniProt Q95PM0).
The target in assay [3] is Rhodesain (Trypanosoma brucei rhodesiense) (UniProt Q95PM0).
In assay [4] the test system is Trypanosoma brucei brucei. Description: microbe, parasite or virus in culture. The note with it: Jurkat.

Rhodesain (Trypanosoma brucei rhodesiense), sequence (Q95PM0 1-450): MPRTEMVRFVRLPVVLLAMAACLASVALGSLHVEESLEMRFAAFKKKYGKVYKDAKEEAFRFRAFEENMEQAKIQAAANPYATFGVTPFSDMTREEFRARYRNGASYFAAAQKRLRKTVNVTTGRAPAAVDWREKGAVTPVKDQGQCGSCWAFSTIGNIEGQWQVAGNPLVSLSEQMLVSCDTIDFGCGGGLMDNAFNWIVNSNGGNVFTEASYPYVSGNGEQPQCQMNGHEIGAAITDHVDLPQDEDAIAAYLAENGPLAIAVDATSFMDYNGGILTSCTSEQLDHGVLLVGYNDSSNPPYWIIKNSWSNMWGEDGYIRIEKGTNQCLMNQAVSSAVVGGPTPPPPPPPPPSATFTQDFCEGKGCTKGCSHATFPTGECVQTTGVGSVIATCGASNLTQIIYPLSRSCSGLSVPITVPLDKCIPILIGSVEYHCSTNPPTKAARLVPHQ
Rhodesain, sequence (Q95PM0 whole entry): as the sequence (Q95PM0 1-450) above
Cruzipain (Trypanosoma cruzi), sequence (P25779 123-467 limits assumed): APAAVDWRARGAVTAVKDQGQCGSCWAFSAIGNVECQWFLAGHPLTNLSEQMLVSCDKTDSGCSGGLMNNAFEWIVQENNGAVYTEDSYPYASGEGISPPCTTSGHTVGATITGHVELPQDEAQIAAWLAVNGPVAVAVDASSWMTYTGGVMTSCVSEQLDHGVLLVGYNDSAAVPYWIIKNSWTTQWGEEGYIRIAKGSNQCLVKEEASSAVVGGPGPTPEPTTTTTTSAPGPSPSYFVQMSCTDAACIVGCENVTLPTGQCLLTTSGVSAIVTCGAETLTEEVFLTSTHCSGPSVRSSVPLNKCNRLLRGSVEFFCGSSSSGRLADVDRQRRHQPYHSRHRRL
Cruzipain, sequence (P25779 whole entry): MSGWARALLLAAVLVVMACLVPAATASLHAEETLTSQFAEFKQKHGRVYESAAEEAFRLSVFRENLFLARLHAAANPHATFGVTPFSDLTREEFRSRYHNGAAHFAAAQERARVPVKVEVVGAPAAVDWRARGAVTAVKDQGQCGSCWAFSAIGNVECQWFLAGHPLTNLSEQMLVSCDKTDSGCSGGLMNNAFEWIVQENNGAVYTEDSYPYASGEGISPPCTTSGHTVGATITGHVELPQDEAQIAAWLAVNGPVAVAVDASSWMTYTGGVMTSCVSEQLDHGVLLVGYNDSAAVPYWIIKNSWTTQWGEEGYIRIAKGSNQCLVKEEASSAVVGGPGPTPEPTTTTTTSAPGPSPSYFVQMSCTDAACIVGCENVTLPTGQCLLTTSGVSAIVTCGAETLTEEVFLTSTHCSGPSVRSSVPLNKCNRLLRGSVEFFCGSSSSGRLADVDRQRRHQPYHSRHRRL

On to `O=C(N[C@H](/C=C/S(=O)(=O)c1ccccc1)CCc1ccccc1)c1ccccc1C(=O)c1ccc(Cl)cc1`, for which the inhibition in assay [1] was 3%.
On the same count and under the same terms, with `Cc1onc(-c2ccc(F)cc2)c1C(=O)N[C@H](/C=C/S(=O)(=O)c1ccccc1)CCc1ccccc1` the figure was 12.5%.
In the case of `Cc1nc(-c2ccccc2)sc1C(=O)N[C@H](/C=C/S(=O)(=O)c1ccccc1)CCc1ccccc1`, the half-inhibitory concentration (IC50) is more than 100 µM in assay [2], 10 µM on Cruzipain, more than 100 µM in the assay with Jurkat and less than 0.006 µM on Rhodesain. This compound gave an inhibition constant Ki at Rhodesain of 0.32 µM. Also, the Kinact in assay [3] was found to be 0.0018 s⁻¹. For the same compound, the GI50 in assay [4] was more than 100 µM. Further, the inhibition in assay [1] is less than 5%.
As to `O=C(N[C@H](/C=C/S(=O)(=O)c1ccccc1)CCc1ccccc1)[C@@H]1CCCC[C@H]1C(=O)c1ccc(Cl)cc1`, the IC50 in assay [2] was 16 µM; on Cruzipain it was 0.05 µM; on Rhodesain, 0.1 µM. The Ki at Rhodesain turned out to be 0.8 µM. In assay [3], this compound registered a Kinact of 0.00051 s⁻¹.
In assay [2], `CN1CCN(C(=O)N[C@@H](Cc2ccccc2)C(=O)N[C@H](/C=C/S(=O)(=O)c2ccccc2)CCc2ccccc2)CC1` [K-777] had a half-inhibitory concentration (IC50) of 4 µM. Moreover, the GI50 in assay [4] was determined as 7 µM.
`O=C(N[C@H](/C=C/S(=O)(=O)c1ccccc1)CCc1ccccc1)c1cc(-c2ccccc2)no1`: the IC50 in assay [2] is 40 µM; on Cruzipain, 2 µM; with Jurkat, more than 100 µM; against Rhodesain, 0.01 µM. Besides, the inhibition constant (Ki) at Rhodesain was determined as 13 µM. The Kinact in assay [3] was 0.0031 s⁻¹. In assay [4], this compound came in with a concentration for 50% growth inhibition (GI50) of more than 100 µM.
In the case of `O=C(N[C@H](/C=C/S(=O)(=O)c1ccccc1)CCc1ccccc1)c1cc(-c2ccccn2)no1`, the IC50 in assay [2] is more than 100 µM; against Cruzipain it was 6 µM; in the assay on Jurkat it was more than 100 µM; against Rhodesain, 0.05 µM. Moreover, on Rhodesain, the inhibitory constant (Ki) stood at 7.4 µM. The Kinact in assay [3] came to 0.0038 s⁻¹. The compound also yielded a GI50 in assay [4] of 10 µM. The same compound came in with an inhibition in assay [1] of less than 5%.
Turning to `O=C(N[C@H](/C=C/S(=O)(=O)c1ccccc1)CCc1ccccc1)c1cc(-c2ccncc2)no1`, the IC50 was more than 100 µM in assay [2], 5 µM against Cruzipain, more than 100 µM in the assay on Jurkat and 0.05 µM against Rhodesain. The Ki on Rhodesain came to 16.2 µM. Moreover, in assay [3], the Kinact came to 0.0091 s⁻¹. For the same compound, in assay [4], the GI50 came out at 10 µM. This compound also yielded an inhibition in assay [1] of less than 5%.
Turning to `O=C(N[C@H](/C=C/S(=O)(=O)c1ccccc1)CCc1ccccc1)c1cc(-c2cccnc2)no1`, the IC50 was more than 100 µM in assay [2], 1 µM at Cruzipain, more than 100 µM with Jurkat and 0.01 µM against Rhodesain. The 50% growth inhibitory concentration (GI50) in assay [4] is more than 100 µM.
In assay [1], `CC(C)(C)c1cc(C(=O)N[C@H](/C=C/S(=O)(=O)c2ccccc2)CCc2ccccc2)n(Cc2ccccc2)n1` returned an inhibition of 2%.
On to `Cc1nc(-c2cccnc2)sc1C(=O)N[C@H](/C=C/S(=O)(=O)c1ccccc1)CCc1ccccc1`, for which the IC50 was more than 100 µM in assay [2], 2 µM on Cruzipain, 98 µM in the assay with Jurkat and 0.03 µM against Rhodesain. This compound returned a GI50 in assay [4] of 20 µM.
Turning to `O=C(N[C@H](/C=C/S(=O)(=O)c1ccccc1)CCc1ccccc1)[C@H]1CCCC[C@@H]1C(=O)c1ccc(Cl)cc1`, the IC50 was more than 100 µM in assay [2], more than 100 µM against Cruzipain and 56 µM on Rhodesain. Also, on Rhodesain, the inhibition constant Ki is 4.9 µM. This compound registered a Kinact in assay [3] of 0.0007 s⁻¹.
As for `Cc1nc(-c2cnccn2)sc1C(=O)N[C@H](/C=C/S(=O)(=O)c1ccccc1)CCc1ccccc1`, the IC50 in assay [2] is more than 100 µM; at Cruzipain, 1 µM; with Jurkat, more than 100 µM; against Rhodesain, 0.01 µM. Besides, the Ki on Rhodesain came to 4.77 µM. In assay [3], this compound showed a Kinact of 0.0079 s⁻¹. In assay [4], this compound gave a GI50 of 7 µM.

The term inhibition denotes the relative decrease from the control value, in per cent. The IC50 is the concentration that gives 50% inhibition. Low values mean greater potency, high ones weaker potency. In general, Ki refers to a dissociation constant, usually derived from enzyme kinetics or from competition with a known ligand. A higher Ki goes with a looser hold on the target. For orientation: GI50 means the concentration giving 50% growth inhibition. The low end stands for more potent growth inhibition, the high end for less potent growth inhibition.
